Assay results reported in patent US10047075B2, “Pyridines and pyrimidines and use thereof” (Purdue Pharma L.P., priority 2014, dated 2018).

These compounds were tested against human Nav1.7 (Homo sapiens, UniProt Q15858) (assay: FLIPR or FLIPR TETRA sodium dye assay with KCl and test article pre-incubation (CoroNa Green, veratridine + scorpion venom)). Conditions: recombinant human Nav1.7 in HEK293 cells.
human Nav1.7, sequence (Q15858 1-1977 isoform Q15858-3): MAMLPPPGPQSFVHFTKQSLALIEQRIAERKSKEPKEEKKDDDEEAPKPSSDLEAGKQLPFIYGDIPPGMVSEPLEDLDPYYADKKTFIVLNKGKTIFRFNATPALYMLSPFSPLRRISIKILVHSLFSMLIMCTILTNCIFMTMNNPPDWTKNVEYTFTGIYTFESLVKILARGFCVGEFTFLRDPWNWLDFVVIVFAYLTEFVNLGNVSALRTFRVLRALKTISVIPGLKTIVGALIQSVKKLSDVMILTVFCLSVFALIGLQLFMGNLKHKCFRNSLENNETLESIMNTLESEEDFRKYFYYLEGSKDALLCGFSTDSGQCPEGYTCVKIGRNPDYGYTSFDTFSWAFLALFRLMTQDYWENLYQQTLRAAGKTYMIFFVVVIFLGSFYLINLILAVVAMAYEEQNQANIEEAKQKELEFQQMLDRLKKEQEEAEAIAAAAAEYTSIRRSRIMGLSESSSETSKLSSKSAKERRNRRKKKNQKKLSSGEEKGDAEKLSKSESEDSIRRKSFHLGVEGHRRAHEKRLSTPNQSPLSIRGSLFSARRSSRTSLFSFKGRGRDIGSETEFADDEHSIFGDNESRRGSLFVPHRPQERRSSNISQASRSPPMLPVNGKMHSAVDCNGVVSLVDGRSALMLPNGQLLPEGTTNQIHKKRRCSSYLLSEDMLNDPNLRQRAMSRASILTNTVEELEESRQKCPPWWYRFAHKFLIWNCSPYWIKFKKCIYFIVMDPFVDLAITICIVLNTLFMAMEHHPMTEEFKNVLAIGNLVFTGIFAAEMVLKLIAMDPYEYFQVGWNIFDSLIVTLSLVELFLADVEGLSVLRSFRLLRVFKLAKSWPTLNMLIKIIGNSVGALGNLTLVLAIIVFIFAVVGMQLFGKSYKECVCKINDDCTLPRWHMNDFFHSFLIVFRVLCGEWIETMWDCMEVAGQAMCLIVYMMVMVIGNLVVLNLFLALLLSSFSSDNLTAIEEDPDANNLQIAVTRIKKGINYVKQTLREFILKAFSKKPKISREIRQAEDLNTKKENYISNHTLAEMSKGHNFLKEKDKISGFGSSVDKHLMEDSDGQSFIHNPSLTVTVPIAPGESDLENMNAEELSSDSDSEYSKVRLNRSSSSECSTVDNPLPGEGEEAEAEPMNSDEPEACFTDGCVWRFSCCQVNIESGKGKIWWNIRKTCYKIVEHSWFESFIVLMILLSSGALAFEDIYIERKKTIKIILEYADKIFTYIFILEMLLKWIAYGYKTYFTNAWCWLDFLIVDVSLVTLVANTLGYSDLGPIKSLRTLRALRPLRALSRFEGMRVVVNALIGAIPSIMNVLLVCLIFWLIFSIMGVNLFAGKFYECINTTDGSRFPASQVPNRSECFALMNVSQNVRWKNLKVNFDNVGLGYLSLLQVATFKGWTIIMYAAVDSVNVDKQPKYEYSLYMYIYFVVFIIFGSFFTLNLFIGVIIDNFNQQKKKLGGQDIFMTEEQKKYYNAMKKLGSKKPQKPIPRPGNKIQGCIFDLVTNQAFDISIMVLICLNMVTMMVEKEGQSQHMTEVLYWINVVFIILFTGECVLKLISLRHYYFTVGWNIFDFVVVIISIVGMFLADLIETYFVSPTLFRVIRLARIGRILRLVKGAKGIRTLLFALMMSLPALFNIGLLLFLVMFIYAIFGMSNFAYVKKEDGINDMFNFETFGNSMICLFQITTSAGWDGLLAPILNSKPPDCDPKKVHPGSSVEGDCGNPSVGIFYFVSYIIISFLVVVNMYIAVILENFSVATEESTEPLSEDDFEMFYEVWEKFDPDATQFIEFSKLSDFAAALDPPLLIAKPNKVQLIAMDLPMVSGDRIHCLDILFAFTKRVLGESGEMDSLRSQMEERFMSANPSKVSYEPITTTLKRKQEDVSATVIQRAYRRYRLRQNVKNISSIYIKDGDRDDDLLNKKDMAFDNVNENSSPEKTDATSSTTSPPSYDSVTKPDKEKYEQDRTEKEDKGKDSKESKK
Format: cell-based
Compound NC(=O)CN1CCN(C2CCCCC2)c2ccc(-c3cccc([C@H](O)CO)n3)cc2C1 [Compound 104, (S)-2-(1-cyclohexyl-7-(6-(1,2-dihydroxyethyl)pyridin-2-yl)-1,2,3,5-tetrahydro-4H-benzo[e][1,4]diazepin-4-yl)acetamide] has an IC50 of 2.61 ± 0.047 µM. C[C@H](Nc1cc(C(N)=O)nc(-c2ccc3c(c2)CN(C)CCN3c2ccc(C(F)(F)F)cc2)n1)C(N)=O [Compound 90, (S)-6-((1-amino-1-oxopropan-2-yl)amino)-2-(4-methyl-1-(4-(trifluoromethyl)phenyl)-2,3,4,5-tetrahydro-1H-benzo[e][1,4]diazepin-7-yl)pyrimidine-4-carboxamide] showed an IC50 of over 20 µM. In the case of NC(=O)c1cccc(-c2ccc3c(c2)CCCN3c2cccc(C(F)(F)F)c2)n1 [Compound 67, 6-(1-(3-(trifluoromethyl)-phenyl)-1,2,3,4-tetrahydroquinolin-6-yl)picolinamide], the IC50 is reported as over 20 µM. Work on OC[C@@H](O)c1cccc(-c2ccc3c(c2)CCCCN3C2CCC(F)(F)CC2)n1 [Compound 76, (S)-1-(6-(1-(4,4-difluorocyclohexyl)-2,3,4,5-tetrahydro-1H-benzo[b]azepin-7-yl)pyridin-2-yl)ethane-1,2-diol] yielded an IC50 of 0.526 ± 0.034 µM. With C[C@H](Nc1cc(C(N)=O)nc(-c2ccc3c(c2)CN(CC2CC2)CCN3c2ccc(C(F)(F)F)cc2)n1)C(N)=O [Compound 89, (S)-6-((1-amino-1-oxopropan-2-yl)amino)-2-(4-(cyclopropylmethyl)-1-(4-(trifluoromethyl)phenyl)-2,3,4,5-tetrahydro-1H-benzo[e][1,4]diazepin-7-yl)pyrimidine-4-carboxamide] the IC50 was over 20 µM. In the case of CCNC(=O)N1CCN(c2ccc(C(F)(F)F)cc2)c2ccc(-c3cccc([C@H](O)CO)n3)cc2C1 [Compound 97, (S)-7-(6-(1,2-dihydroxyethyl)pyridin-2-yl)-N-ethyl-1-(4-(trifluoromethyl)phenyl)-1,2,3,5-tetrahydro-4H-benzo[e][1,4]diazepin-4-carboxamide], the IC50 is reported as 2.62 ± 0.1 µM. N#CCN1CCN(c2ccc(C(F)(F)F)cc2)c2ccc(-c3cccc([C@H](O)CO)n3)cc2C1 [Compound 106, (S)-2-(7-(6-(1,2-dihydroxyethyl)pyridin-2-yl)-1-(4-(trifluoromethyl)phenyl)-1,2,3,5-tetrahydro-4H-benzo[e][1,4]diazepin-4-yl)acetonitrile] gave an IC50 of 0.581 ± 0.038 µM. CC(=O)N1CCN(C2CCCCC2)c2ccc(-c3cccc([C@H](O)CO)n3)cc2C1 [Compound 94, (S)-1-(1-cyclohexyl-7-(6-(1,2-dihydroxyethyl)pyridin-2-yl)-1,2,3,5-tetrahydro-4H-benzo[e][1,4]diazepin-4-yl)ethan-1-one] showed an IC50 of 8.8 ± 1.92 µM. Work on NC(=O)c1cccc(-c2ccc3c(c2)CN(CC(O)CO)CCN3c2ccc(C(F)(F)F)cc2)n1 (centres unmarked) [Compound 109, 6-(4-(2,3-dihydroxypropyl)-1-(4-(trifluoromethyl)phenyl)-2,3,4,5-tetrahydro-1H-benzo[e][1,4]diazepin-7-yl)picolinamide] yielded an IC50 of 5.7 ± 0.663 µM. Compound C[C@H](Nc1cc(C(N)=O)nc(-c2ccc3c(c2)CCCN3c2ccc(C(F)(F)F)cc2)n1)C(N)=O [Compound 80, (S)-6-((1-amino-1-oxopropan-2-yl)amino)-2-(1-(4-(trifluoro-methyl)phenyl)-1,2,3,4-tetrahydroquinolin-6-yl)pyrimidine-4-carboxamide] has an IC50 of 0.653 ± 0.118 µM. For CCN(CC)C(=O)N1CCN(c2ccc(C(F)(F)F)cc2)c2ccc(-c3cccc(C(N)=O)n3)cc2C1 [Compound 92, 7-(6-carbamoylpyridin-2-yl)-N,N-diethyl-1-(4-(trifluoromethyl)phenyl)-1,2,3,5-tetrahydro-4H-benzo[e][1,4]diazepino-4-carboxamide], the IC50 was 0.813 ± 0.057 µM. Compound NC(=O)c1cccc(-c2ccc3c(c2)CCCN3c2ccc(C(F)(F)F)cc2)n1 [Compound 66, 6-(1-(4-(trifluoromethyl)-phenyl)-1,2,3,4-tetrahydroquinolin-6-yl)picolinamide] has an IC50 of 0.913 ± 0.024 µM. Compound NC(=O)c1cccc(-c2ccc3c(c2)CN(C(=O)C2CC2)CCN3c2ccc(C(F)(F)F)cc2)n1 [Compound 93, 6-(4-(cyclopropanecarbonyl)-1-(4-(trifluoromethyl)phenyl)-2,3,4,5-tetrahydro-1H-benzo[e][1,4]diazepin-7-yl)picolinamide] has an IC50 of over 20 µM. With OC[C@@H](O)c1cccc(-c2ccc3c(c2)CN(Cc2ncc[nH]2)CCN3c2ccc(C(F)(F)F)cc2)n1 [Compound 107, (S)-1-(6-(4-((1H-imidazol-2-yl)methyl)-1-(4-(trifluoromethyl)phenyl)-2,3,4,5-tetrahydro-1H-benzo[e][1,4]diazepin-7-yl)pyridin-2-yl)ethane-1,2-diol] the IC50 was 0.669 ± 0.053 µM. Compound OC[C@@H](O)c1cccc(-c2ccc3c(c2)CCCN3Cc2ccc(C(F)(F)F)cc2)n1 [Compound 81, (S)-1-(6-(1-(4-(trifluoromethyl)benzyl)-1,2,3,4-tetrahydroquinolin-6-yl)pyridin-2-yl)ethane-1,2-diol] has an IC50 of 0.091 ± 0.025 µM. OC[C@@H](O)c1cccc(-c2ccc3c(c2)CCCCN3C2CCCCC2)n1 [Compound 73, (S)-1-(6-(1-cyclohexyl-2,3,4,5-tetrahydro-1H-benzo[b]azepin-7-yl)pyridin-2-yl)ethane-1,2-diol] showed an IC50 of 0.331 ± 0.031 µM. CN(C)CC(=O)N1CCN(c2ccc(C(F)(F)F)cc2)c2ccc(-c3cccc([C@H](O)CO)n3)cc2C1 [Compound 100, (S)-1-(7-(6-(1,2-dihydroxyethyl)pyridin-2-yl)-1-(4-(trifluoromethyl)phenyl)-1,2,3,5-tetrahydro-4H-benzo[e][1,4]diazepin-4-yl)-2-(dimethylamino)ethan-1-one] showed an IC50 of 7.07 ± 1.45 µM. Compound NC(=O)[C@H](O)[C@@H](O)c1cccc(-c2ccc3c(c2)OCCCN3c2ccc(C(F)(F)F)cc2)n1 [Compound 83, (2R,3S)-2,3-dihydroxy-3-(6-(5-(4-(trifluoromethyl)phenyl)-2,3,4,5-tetrahydrobenzo[b][1,4]-oxazepin-8-yl)pyridin-2-yl)propanamide] has an IC50 of 0.213 ± 0.013 µM. Work on O=S(=O)(c1ccc(C(F)(F)F)cc1)N1CCCc2cc(-c3cccc([C@H](O)CO)n3)ccc21 [Compound 78, (S)-1-(6-(1-((4-(trifluoromethyl)-phenyl)sulfonyl)-1,2,3,4-tetrahydroquinolin-6-yl)pyridin-2-yl)ethane-1,2-diol] yielded an IC50 of 0.857 ± 0.103 µM. C[C@H](Nc1cc(C(N)=O)nc(-c2ccc3c(c2)CNCCN3c2ccc(C(F)(F)F)cc2)n1)C(N)=O [Compound 88, (S)-6-((1-amino-1-oxopropan-2-yl)amino)-2-(1-(4-(trifluoromethyl)phenyl)-2,3,4,5-tetrahydro-1H-benzo[e][1,4]diazepin-7-yl)pyrimidine-4-carboxamide] showed an IC50 of over 20 µM. NC(=O)c1cccc(-c2ccc3c(c2)COCCN3c2ccc(C(F)(F)F)cc2)n1 [Compound 61, 6-(1-(4-(trifluoromethyl)phenyl)-1,2,3,5-tetrahydrobenzo[e][1,4]oxazepin-7-yl)picolinamide] gave an IC50 of 0.404 ± 0.036 µM. NC(=O)c1cccc(-c2ccc3c(c2)CCCCN3c2ccc(C(F)(F)F)cc2)n1 [Compound 58, 6-(1-(4-(trifluoromethyl)phenyl)-2,3,4,5-tetrahydro-1H-benzo[b]azepin-7-yl)picolinamide] gave an IC50 of 0.357 ± 0.015 µM. Work on NC(=O)c1cccc(-c2ccc3c(c2)CCN3c2ccc(C(F)(F)F)cc2)n1 [Compound 68, 6-(1-(4-(trifluoromethyl)-phenyl)indolin-5-yl)-picolinamide] yielded an IC50 of over 20 µM. NC(=O)c1cc(CN[C@H]2CCNC2=O)nc(-c2ccc3c(c2)OCCCN3c2ccc(C(F)(F)F)cc2)n1 [Compound 72, (S)-6-(((2-oxopyrrolidin-3-yl)amino)methyl)-2-(5-(4-(trifluoromethyl)phenyl)-2,3,4,5-tetrahydrobenzo[b][1,4]oxazepin-8-yl)pyrimidine-4-carboxamide] gave an IC50 of 0.11 ± 0.022 µM. In the case of C[C@H](Nc1cc(C(N)=O)nc(-c2ccc3c(c2)CCCCN3c2ccc(C(F)(F)F)cc2)n1)C(N)=O [Compound 64, (S)-6-((1-amino-1-oxopropan-2-yl)amino)-2-(1-(4-(trifluoro-methyl)phenyl)-2,3,4,5-tetrahydro-1H-benzo[b]azepin-7-yl)pyrimidine-4-carboxamide], the IC50 is reported as 1.04 ± 0.077 µM. With OC[C@@H](O)c1cccc(-c2ccc3c(c2)CCCCN3C2CCOCC2)n1 [Compound 75, (S)-1-(6-(1-(tetrahydro-2H-pyran-4-yl)-2,3,4,5-tetrahydro-1H-benzo[b]azepin-7-yl)pyridin-2-yl)ethane-1,2-diol] the IC50 was 3.35 ± 0.244 µM. Compound NC(=O)c1cc([C@H](O)CO)cc(-c2ccc3c(c2)CN(CC2CC2)CCN3c2ccc(C(F)(F)F)cc2)n1 [Compound 122, (S)-6-(4-(cyclopropylmethyl)-1-(4-(trifluoromethyl)phenyl)-2,3,4,5-tetrahydro-1H-benzo[e][1,4]diazepin-7-yl)-4-(1,2-dihydroxyethyl)-picolinamide] has an IC50 of 7.21 ± 0.341 µM. NC(=O)c1cc(O[C@H]2CCNC2=O)nc(-c2ccc3c(c2)OCCCN3c2ccc(C(F)(F)F)cc2)n1 [Compound 82, (S)-6-((2-oxopyrrolidin-3-yl)oxy)-2-(5-(4-(trifluoromethyl)phenyl)-2,3,4,5-tetrahydrobenzo-[b][1,4]oxazepin-8-yl)pyrimidine-4-carboxamide] gave an IC50 of 0.211 ± 0.038 µM. In the case of CNC(=O)CN1CCN(c2ccc(C(F)(F)F)cc2)c2ccc(-c3cccc([C@H](O)CO)n3)cc2C1 [Compound 105, (S)-2-(7-(6-(1,2-dihydroxyethyl)pyridin-2-yl)-1-(4-(trifluoromethyl)phenyl)-1,2,3,5-tetrahydro-4H-benzo[e][1,4]diazepin-4-yl)-N-methylacetamide], the IC50 is reported as 0.644 ± 0.025 µM. In the case of C[C@H](Nc1cc(C(N)=O)nc(-c2ccc3c(c2)OCCC3Cc2ccc(F)cc2)n1)C(N)=O (stereo partly drawn) [Compound 112, 6-(((S)-1-amino-1-oxopropan-2-yl)amino)-2-(4-(4-fluorobenzyl)chroman-7-yl)pyrimidine-4-carboxamide], the IC50 is reported as 5.32 ± 0.425 µM. O=C1Cc2cc(-c3cccc([C@H](O)CO)n3)ccc2N1Cc1ccc(C(F)(F)F)cc1 [Compound 77, (S)-5-(6-(1,2-dihydroxyethyl)pyridin-2-yl)-1-(4-(trifluoromethyl)-benzyl)indolin-2-one] was tested, and the IC50 was 7.8 ± 0.691 µM. NC(=O)c1cccc(-c2ccc3c(c2)OCC=C3c2ccc(C(F)(F)F)cc2)n1 [Compound 69, 6-(4-(4-(trifluoromethyl)-phenyl)-2H-chromen-7-yl)picolinamide] gave an IC50 of 0.524 ± 0.077 µM.
